Experimental data: PMC11342128, “Gold(I) and gold(III) carbene complexes from the marine betaine norzooanemonin: inhibition of thioredoxin reductase, antiproliferative and antimicrobial activity” (RSC Medicinal Chemistry, 2024)
Read-outs that look alike come from different tables or passages of the source.

Columns and labels:
TrxR from E. coli [1] = biological target: T1, TrxR from E. coli (Escherichia coli, UniProt P0A9P4); conditions: read-out: Inhibition of bacterial TrxR, IC50; isolated E. coli TrxR; investigated in previous report; cited from earlier work
[2] = system: HT-29 colon carcinoma cells; design: method as in PMID 38205632; conditions: read-out: Antiproliferative activity IC50, HT-29; cited from earlier work
[3] = system: A549 lung carcinoma cells; design: method as in PMID 38205632; conditions: read-out: Antiproliferative activity IC50, A549; cited from earlier work
TrxR from E. coli [4] = biological target: T1, TrxR from E. coli; assay: Inhibition of isolated bacterial TrxR, DTNB-based assay; type: biochemical; design: purchased Sigma-Aldrich
Experimental: The inhibition of isolated TrxR from E. coli was determined for the selected monocarbene gold(I/III) complexes 2a–c and 4b–c using a DTNB-based assay (Table 3). […] The inhibition of bacterial TrxR for compound 2a was investigated in our previous report (Table 3).
S2.3. Inhibition of bacterial TrxR from E. coli
The TrxR (E. coli) inhibition assay was performed according to previously published procedures.[8] The assay is partly based on the procedure developed by Lu et al[9] and makes use of the reduction of DTNB (5,5′-dithiobis-(2-nitrobenzoic acid)). Solutions of E. coli TrxR (10.1 U/mL) and E. coli thioredoxin (Trx) (312 μg/mL) (both purchased from Sigma-Aldrich) were prepared in distilled water. Stock solutions of the test compounds (2 mM) were prepared in DMSO and serially diluted with TE buffer (Tris-HCl 50 mM, EDTA 1 mM, pH 7.5). 20 μL of these solutions or TE buffer without the test compounds (positive control) were mixed with the TrxR solution (10 μL), the Trx solution (10 μL) and 100 µl of NADPH (200 μM) in TE buffer in a well on a 96-well plate. As a blank control, 200 μM NADPH in TE buffer (100 μL) mixed with a DMSO / buffer mixture (40 μL) was used (final concentrations of DMSO: 0.5% v/v). The plate was incubated for 75 min at 25°C with moderate shaking. After incubation, 100 μL of a reaction mixture (TE buffer containing 200 μM NADPH and 5 mM DTNB) was added to each well to initiate the reaction. After thorough mixing, the formation of 5-TNB was monitored by a microplate reader at 405 nm in 35 s intervals (10 measurements). The values were corrected by subtraction of the blank solution absorption values. The increase in concentration of 5-TNB followed a linear trend (r2≥ 0.990) and the enzymatic activities were calculated as the gradients (increase in absorbance per second) thereof. […]
for each test compound, where the highest test compound concentration was used and the enzyme solution was replaced by TE buffer. The inhibition is presented as the mean IC50 values and standard deviations obtained in three independent experiments.
Table S13. Activity of TrxR from E. coli in presence of compounds at 0.5 µM (n = 2, n.d.= not

[5] = system: MCF-7 breast adenocarcinoma cells; design: method as in PMID 38205632; conditions: read-out: Antiproliferative activity IC50, MCF-7; cited from earlier work
[6] = system: Klebsiella pneumoniae DSM111678; assay: Antibacterial activity (MIC, curve fitting); type: cell-based; conditions: for MIC, K.p.: Table 2, Klebsiella pneumoniae DSM111678, 18 h, 37 °C; for MIC, K. pneumoniae: Table S12, ± standard error of the mean
Experimental: (§1) The antibacterial activity of all gold complexes was assessed against six pathogenic bacterial strains, including two Gram-positive species, i.e. Enterococcus faecium and methicillin-resistant Staphylococcus aureus (MRSA), and four Gram-negative species, i.e. Acinetobacter baumannii, Escherichia coli, Klebsiella pneumoniae, and Pseudomonas aeruginosa. Minimum inhibitory concentrations (MICs) were determined using a curve-fitting technique.
(§2) S2.1. Antibacterial Studies
(§3) Bacterial cultures were prepared by overnight aerobic incubation at 37 °C. Gram-negative strains were cultivated in Müller Hinton broth supplemented with 1% glucose at pH 7.2, while Gram-positive strains were grown in Trypticase soy yeast extract medium (TSY) with a composition of 30 g/l trypticase soy broth, 3 g/l yeast extract, and pH 7.2. The cultures were adjusted to an OD600 of 0.001, resulting in a final starting OD600 of 0.0005 for the subsequent tests. For testing, 25 μL of the prepared culture was combined with 25 μL of serially diluted test compounds in 384 well plates, following established protocols for different strains. Screening was performed at compound concentrations of 0.5, 5, and 50 µM, and for selected compounds, growth inhibition curves were recorded using DMSO stock solutions […]
(§4) Positive control compounds, namely linezolid (for MRSA strains), ciprofloxacin (for E. faecium and E. coli), and amikacin (for P. aeruginosa), were included. The maximum DMSO concentration in the assay […]
(§5) After an 18-hour incubation at 37 °C under moist conditions, the optical density at 600 nm was measured using a Fusion Universal Microplate Analyser (Perkin–Elmer, Waltham, USA). The minimum inhibitory concentration (MIC) values, representing the […]
(§6) fitting with Sigma Plot. The bacterial strains used included Gram-negative strains: Escherichia coli (DSM 1116), A. baumannii (DSM30007), K. pneumoniae (DSM111678), and Pseudomonas aeruginosa PA7 (DSM 24068); and Gram-positive strains: E. faecium (DSM20477) and Staphylococcus aureus MRSA

[7] = system: Pseudomonas aeruginosa DSM 24068; assay: Antibacterial activity (MIC, curve fitting); type: cell-based; conditions: for MIC, P.a.: Table 2, Pseudomonas aeruginosa DSM 24068, 18 h, 37 °C; for MIC, P. aeruginosa: Table S12, ± standard error of the mean
Experimental: as §1, §2, §3, §4, §5, §6

[8] = system: Acinetobacter baumannii DSM30007; assay: Antibacterial activity (MIC, curve fitting); type: cell-based; conditions: for MIC, A.b.: Table 2, Acinetobacter baumannii DSM30007, 18 h, 37 °C; for MIC, A. baumannii: Table S12, ± standard error of the mean
Experimental: as §1, §2, §3, §4, §5, §6

[9] = system: Escherichia coli DSM 1116; assay: Antibacterial activity (MIC, curve fitting); type: cell-based; conditions: for MIC, E.c.: Table 2, Escherichia coli DSM 1116, 18 h, 37 °C; for MIC, E. coli: Table S12, ± standard error of the mean
Experimental: as §1, §2, §3, §4, §5, §6

[10] = system: methicillin-resistant Staphylococcus aureus DSM 11822; assay: Antibacterial activity (MIC, curve fitting); type: cell-based
Experimental: as §1, §2, §3, §4, §5, §6

[11] = system: Enterococcus faecium DSM20477; assay: Antibacterial activity (MIC, curve fitting); type: cell-based; conditions: for MIC, E.f.: Table 2, Enterococcus faecium DSM20477, 18 h, 37 °C; for MIC, E. faecium: Table S12, ± standard error of the mean
Experimental: as §1, §2, §3, §4, §5, §6

[12] = system: MDA-MB-231 breast cancer cells; design: method as in PMID 38205632; conditions: read-out: Antiproliferative activity IC50, MDA-MB-231; cited from earlier work
[13] = system: Vero E6 African green monkey kidney cells; assay: Antiproliferative activity in non-tumour reference cell line; type: cell-based; conditions: Vero E6 non-tumour reference cell line; SD in parentheses, n = 3
Experimental: (§7) The antiproliferative potential of the gold–NHC complexes was determined in A549 lung carcinoma cells, MDA-MB-231 breast cancer cells, MCF-7 breast adenocarcinoma cells, and HT-29 colon carcinoma cells (Table 1). Vero E6 African green monkey kidney cells served as a reference cell line to check for possible tumour selectivity. Auranofin (AF) was used as an established reference drug.[15,17] […]
(§8) S2.2. Cytotoxicity and Anticancer Studies
(§9) Cell culture and cytotoxicity
(§10) Cell lines were sourced from DSMZ (German Collection of Microorganisms and Cell Cultures GmbH) and maintained through standard procedures in Dulbecco's Modified Eagle Medium (DMEM) supplemented with 10% fetal calf serum and 50 mg/L gentamycin. Antiproliferative effects were assessed using a well-established assay protocol. In brief, 100 μL volumes of A549 cells (13,243 cells per mL), HT-29 cells (14,657 cells per mL), MDA-MB-231 cells (6,613 cells per mL), or MCF-7 cells (6,917 cells per mL) were transferred into the wells of 96-well plates and incubated at 37°C/5% CO2 for 72 […]
(§11) Freshly prepared stock solutions of the compounds in DMSO were diluted with the respective cell culture medium to achieve graded concentrations (final concentration of DMSO: 0.1% v/v). After 72 hours (A549, HT-29) or 96 hours (MCF-7, MDA-MB-231) of exposure, the cell biomass was assessed through crystal violet staining, and the IC50 value was determined as the concentration causing 50% inhibition of cell proliferation compared to an untreated control. Results were calculated as the mean values of three independent experiments.

[14] = system: HT-29 colon carcinoma cells; assay: Antiproliferative activity, crystal violet assay; type: cell-based; conditions: 72 h exposure, SD in parentheses, n = 3
Experimental: as §7, §8, §9, §10, §11

[15] = system: MDA-MB-231 breast cancer cells; assay: Antiproliferative activity, crystal violet assay; type: cell-based; conditions: 96 h exposure, SD in parentheses, n = 3
Experimental: as §7, §8, §9, §10, §11

[16] = system: MCF-7 breast adenocarcinoma cells; assay: Antiproliferative activity, crystal violet assay; type: cell-based; conditions: 96 h exposure, SD in parentheses, n = 3
Experimental: as §7, §8, §9, §10, §11

[17] = system: A549 lung carcinoma cells; assay: Antiproliferative activity, crystal violet assay; type: cell-based; conditions: 72 h exposure, SD in parentheses, n = 3
Experimental: as §7, §8, §9, §10, §11

[18] = Table 2, MRSA DSM 11822, 18 h, 37 °C
[19] = Table S12, ± standard error of the mean

T1 sequence (P0A9P4 2-321): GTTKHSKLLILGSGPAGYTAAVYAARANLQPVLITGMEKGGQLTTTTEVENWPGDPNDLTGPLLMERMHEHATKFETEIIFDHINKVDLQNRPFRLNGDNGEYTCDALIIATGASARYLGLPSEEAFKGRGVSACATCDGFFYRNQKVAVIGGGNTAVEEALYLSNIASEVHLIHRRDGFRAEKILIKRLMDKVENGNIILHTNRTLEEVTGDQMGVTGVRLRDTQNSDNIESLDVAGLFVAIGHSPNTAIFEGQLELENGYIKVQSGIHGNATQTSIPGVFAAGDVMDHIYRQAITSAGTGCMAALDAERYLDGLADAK

Compound	MIC, K.p. [6] [µM]	MIC, K. pneumoniae [6] [µM]	MIC, P.a. [7] [µM]	MIC, P. aeruginosa [7] [µM]	MIC, A.b. [8] [µM]	MIC, A. baumannii [8] [µM]	MIC, E.c. [9] [µM]	MIC, E. coli [9] [µM]	MIC, MRSA [10, 18] [µM]	MIC, MRSA [10, 19] [µM]	MIC, E.f. [11] [µM]	MIC, E. faecium [11] [µM]	also measured
Cn1cc(C(=O)O)[n+](C)[c]1[Au-][Cl] [2a]	43 ± 7	42.95 ± 6.75	>100	> 100	43 ± 0	42.95 ± 0	86 ± 0	85.89 ± 0	>100	> 100	>100	> 100	IC50 (TrxR from E. coli [1]): 0.786 ± 0.118 µM; IC50 [2]: 63.9 µM; IC50 [3]: 60 µM; TrxR activity, % of control (TrxR from E. coli [4]; compounds at 0.5 µM, n = 2, Table S13): 94.6 % of control; IC50 [5]: 53.4 µM; IC50 [12]: 76.1 µM
CC(=O)OC[C@H]1O[C@@H]([S-])[C@H](OC(C)=O)[C@@H](OC(C)=O)[C@@H]1OC(C)=O.CCP(CC)CC.[Au+] [AF, auranofin, reference compound]	81	81	>100	> 100	55	55	46	46	0.4	0.4	0.3	0.3	IC50 (TrxR from E. coli [4]; isolated E. coli TrxR, DTNB assay, ± standard deviation, n = 3): 0.21 ± 0.03 µM; IC50 [13]: 2.4 µM; IC50 [14]: 4.32 µM; IC50 [15]: 0.8 µM; IC50 [16]: 1.89 µM; IC50 [17]: 3.53 µM
